Experimental findings from patent US8957061B2, “Azetidine derivatives as sphingosine 1-phosphate (S1P) receptor modulators” (Allergan, Inc., priority 2013, dated 2015) are described below.

The target of the assay is T1, human S1P1 receptor (Homo sapiens, UniProt P21453).
T1 construct: expressed in transfected cells; membranes used
The assay is described as follows: GTP γ35S binding assay for S1P1 activity. Format: biochemical. As to conditions: activity potency, S1P1 receptor from GTP γ35S; membranes of cells stably expressing the S1P1 receptor; test concentrations 0.08 to 5,000 nM. The method, then:
Compounds were synthesized and tested for S1P1 activity using the GTP γ^35S binding assay. These compounds may be assessed for their ability to activate or block activation of the human S1P1 receptor in cells stably expressing the S1P1 receptor. GTP γ^35S binding was measured in the medium containing (mM) HEPES 25, pH 7.4, MgCl2 10, NaCl 100, dithiothreitol 0.5, digitonin 0.003%, 0.2 nM GTP γ^35S, and 5 μg membrane protein in a volume of 150 μl. Test compounds were included in the concentration range from 0.08 to 5,000 nM unless indicated otherwise. Membranes were incubated with 100 μM 5′-adenylylimidodiphosphate for 30 min, and subsequently with 10 μM GDP for 10 min on ice. Drug solutions and membrane were mixed, and then reactions were initiated by adding GTP γ^35S and continued for 30 min at 25° C. Reaction mixtures were filtered over Whatman GF/B filters under vacuum, and washed three times with 3 mL of ice-cold buffer (HEPES 25, pH7.4, MgCl2 10 and NaCl 100). Filters were dried and mixed with scintillant, and counted for ^35S activity using a β-counter. Agonist-induced GTP γ^35S binding was obtained by subtracting that in the absence of agonist. Binding data were analyzed using a non-linear regression method.

T1 sequence (P21453 whole entry): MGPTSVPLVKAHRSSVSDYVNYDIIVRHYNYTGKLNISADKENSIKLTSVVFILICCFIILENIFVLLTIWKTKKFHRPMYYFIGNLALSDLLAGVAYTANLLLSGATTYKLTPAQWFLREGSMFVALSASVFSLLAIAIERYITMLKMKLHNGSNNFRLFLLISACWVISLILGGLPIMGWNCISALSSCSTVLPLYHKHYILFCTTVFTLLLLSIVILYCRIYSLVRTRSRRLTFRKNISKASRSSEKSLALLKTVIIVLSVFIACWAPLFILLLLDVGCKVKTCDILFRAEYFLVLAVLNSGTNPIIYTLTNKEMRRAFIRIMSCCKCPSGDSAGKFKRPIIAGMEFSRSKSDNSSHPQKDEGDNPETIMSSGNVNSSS

The compound `Cc1ccc(CC(CCC[S+]([O-])c2ccc(CN3CC(C(=O)O)C3)cc2)c2cccc(Cl)c2)cc1C` (stereo not shown) [Compound 1, 1-(4-{[4-(3-Chlorophenyl)-5-(3,4-dimethylphenyl)pentyl]sulfinyl}benzyl)azetidine-3-carboxylic acid] registered an EC50 of 121 nM.

A word on the EC50: it is the concentration giving half of the maximal effect. A lower EC50 goes with an effect from little substance.
